Results taken from patent US20230000829A1, “COMPOSITION FOR SLEEP IMPROVEMENT COMPRISING ERGOTHIONEINE OR SALT THEREOF” (priority 2019, published 2023).
Entries after “also recorded” stand apart in the source; their conditions may differ.

Tests used:
Sprague-Dawley (SD) rat = assay: Stress sleep disorder model, brain waves during sleep; type: in vivo; conditions: stress-induced rats, oral about 20 mg per 1 kg body weight per day
Protocol: The following method was used to induce stress in rats in an ergothioneine administration group (N=5) and a non-administration group (N=7). During the test period, the rats were kept under a 12-hour light-dark cycle. A Sprague-Dawley (SD) rat (8 weeks of age) was introduced into a cage where a larger and highly aggressive Brown-Norway (BN) rat was kept. These two rats were housed together for 10 minutes to make sure contact (direct contact) between the rats as the BN rat chasing after or hovering over the SD rat. Then, the SD rat and the BN rat were kept together for 24 hours in a breeding cage having compartments separated by a transparent perforated partition (indirect contact). Stress was induced in the SD rat in the same manner on the following day. A BM rat different from the one on the preceding day was used as a stressor. Stress was induced once a day for five consecutive days (from Monday to Friday), and then only indirect contact was allowed for two days on the weekend. This process was repeated for two cycles. Thus, stress induction under conditions combining direct contact and indirect contact was performed 10 times in total, and stress was induced for 12 days in total. The ergothioneine administration group was orally administered with L-ergothioneine from seven days before stress induction to the end of stress induction. L-ergothioneine was used in the form of an aqueous solution of L-ergothioneine dissolved in water (L-ergothioneine concentration: 0.25 mg/mL). The dosage of L-ergothioneine was about 20 mg per 1 kg body weight per day. The non-administration group was orally administered with water instead of the aqueous L-ergothioneine solution. The control (stress (−)) group (N=4) was orally administered with water without the stress induction. Electrodes were implanted in the rats to record brain waves, and brain waves during sleep and wakefulness were recorded for 24 hours after the end of stress induction. NREM sleep, REM sleep, and awake state were determined from the brain waves using biological signal analysis software Spike2 (available from CED), and the duration of episode of each of these states was calculated. Tukey's multiple comparisons test (*: p<0.05, **: p<0.005, ****: p<0.0001) was performed for significance testing.

[1] = test system: male and female adults feeling stressed on a daily basis and dissatisfied with their sleep; assay: Sleep quality evaluation test for humans (electroencephalograph SLEEPSCOPE); type: in vivo, human; conditions: 20 mg capsule daily for four weeks
Protocol: (§1) In order to examine a sleep improving effect such as a sleep quality-improving effect of a supplement containing ergothioneine, male and female adults feeling stressed on a daily basis and dissatisfied with their sleep (test food group: 46 subjects; control food group: 46 subjects; 92 subjects in total) were subjected to a placebo-controlled, randomized, double-blind, parallel-group comparative study in which one capsule containing 20 mg of L-ergothioneine (test food) or one capsule not containing L-ergothioneine (control food) was ingested daily for four weeks. The sleep quality and sleep duration were evaluated by measuring brain waves during sleep using an electroencephalograph “SLEEPSCOPE” (product name) available from SleepWell Co., Ltd. A 2-sample t-test (**: p<0.01, *: p<0.05, t: p<0.1, vs. control food group) was performed for significance testing between the groups.
Two types of food indistinguishable in terms of appearance, flavor, and the like were used for evaluation. • Test food: capsule containing a test substance (L-ergothioneine 20 mg) • Control food: capsule not containing a test substance
Each type of food for evaluation contained raw materials such as dextrin, hydroxypropyl cellulose, carrageenan, potassium chloride, and titanium oxide, in addition to the test substance. The control food was produced using the same raw materials used in the test food, except that the test substance (L-ergothioneine) was not added.
(§2) Brain waves during sleep were measured before the start of ingestion of the food for evaluation (pre-test) and after four weeks of ingestion of the food. The pre-test measurement of brain waves was regarded as “pre-examination”, and the measurement of brain waves after four weeks of ingestion of the food for evaluation was regarded as “week 4 examination”. The L-ergothioneine concentration (μM) in blood of each subject was also measured at the pre-examination and at the week 4 examination.
NREM sleep is divided into three stages 1 to 3 according to sleep depth by measuring brain waves using an electroencephalograph “SLEEPSCOPE” available from SleepWell Co., Ltd.
Ratio (%) of each sleep stage (NREM sleep stage 1, 2, or 3) to total sleep time; number of wake after sleep onset (frequency); number of wake after sleep onset in two hours before waking up (frequency), NREM sleep latency (min); 5 power in the first sleep cycle (delta power during NREM sleep in the first sleep cycle) (μV^2); and sleep efficiency (%).
FIGS. 4 to 19 show results of main evaluation items for sleep quality (ratio of total time of each sleep stage to total sleep time; number of wake after sleep onset; number of wake after sleep onset in two hours before waking up; NREM sleep latency; 5 (delta) power in the first sleep cycle, and sleep efficiency) and sleep duration, as determined by measuring brain waves. FIGS. 4 to 19 show the measured values and the amount of change between measurements at the pre-examination and at the week 4 examination (**: p<0.01, *: p<0.05, †: p<0.1, vs. control food group). The amount of change is a value obtained by subtracting the measured value at the pre-examination from the measured value at the week 4 examination (“measured value at week 4 examination”−“measured value at pre-examination”). The results shown in FIG. 4 to FIG. 20 are presented in means±standard error for each group. A 2-sample t-test (**: p<0.01, *: p<0.05, †: p<0.1, vs. control food group) was performed for significance testing between the groups. In FIG. 4, FIG. 5, FIG. 6, FIG. 8, FIG. 10, FIG. 12, FIG. 14, FIG. 16, FIG. 18, and FIG. 20, “Pre.” refers to the pre-examination, and “Post.” refers to the week 4 examination. The solid lines represent the test food group, and the dashed lines represent the control food group. In FIG. 7, FIG. 9, FIG. 11, FIG. 13, FIG. 15, FIG. 17, and FIG. 19, the black bars represent the test food group, and the white bars represent the control food group.

[2] = L-ergothioneine concentration in plasma of human subjects; type: in vivo; conditions: 20 mg capsule daily for four weeks, week 4 vs pre-examination and control food group, FIG. 20
Protocol: as §1, §2

[3] = light phase, vs non-administration group, FIG. 1

Compound: C[N+](C)(C)[C@@H](Cc1c[nH]c(=S)[nH]1)C(=O)[O-] [L-ergothioneine]
- fragmentation in REM sleep (number of sleep fragmentation episodes) (Sprague-Dawley (SD) rat; light phase, FIG. 2): reduced fragmentation to a level comparable to that of the control group
- duration of episode of NREM sleep (NREM) (Sprague-Dawley (SD) rat; [3]): improved these phenomena to the level of the control group without stress induction
- duration of episode of REM sleep (REM) (Sprague-Dawley (SD) rat; [3]): improved these phenomena to the level of the control group without stress induction
- ratio of NREM sleep duration to total sleep time (Sprague-Dawley (SD) rat): increased the ratio of NREM sleep duration to total sleep time
- sleep latency (latency from the start of the light phase to the first episode of NREM sleep) (Sprague-Dawley (SD) rat; FIG. 3): to a level comparable to that of control group without stress induction; also recorded: exhibited an action to reduce an increase in sleep latency
- number and duration of wake after sleep onset [1]: reduced the number and duration of wake after sleep onset
- ratio of NREM sleep duration (total of stages 1 to 3) to total sleep time ([1]; vs control food group): increased the ratio of NREM sleep duration to total sleep time
- sleep latency ([1]; vs control food group): showed a reduced sleep latency, compared to the control food group
- ratio of NREM sleep stage 1 (N1) to total sleep time ([1]; vs control food group, FIG. 4, 7): significantly suppressed
- number of wake after sleep onset ([1]; vs control food group, FIG. 8, 9): significantly suppressed sleep fragmentation
- number of wake after sleep onset in two hours before waking up ([1]; vs control food group, FIG. 10, 11): significantly suppressed sleep fragmentation
- NREM sleep latency (time to reach deep sleep) ([1]; vs control food group, FIG. 12, 13): reduced an increase in time to reach deep sleep
- 5 power in the first sleep cycle ([1]; vs control food group, FIG. 14, 15): increased 5 power in the first sleep cycle
- sleep efficiency ([1]; vs control food group, FIG. 16, 17): increased sleep efficiency
- sleep duration ([1]; vs control food group, FIG. 18, 19): increased sleep duration
- L-ergothioneine concentration in plasma [2]: increased the L-ergothioneine concentration in plasma
